# A melting point compilation (Tetko et al.)
row,SMILES,melting point
1,Cc1ccccc1CNc1ccccc1N,71 to 73 °C
2,CCS(=O)(=O)N1CCc2cc(C(=O)CCl)ccc21,231 to 233 °C
3,NC(=O)CC1CC2CCC1C2 (centres undefined),152 to 154 °C
4,O=C(c1cccnc1)c1ccc2c(c1)CCO2,108 to 110 °C
5,Cc1ccc(Sc2nc(=N)s[nH]2)cc1,181 to 183 °C
6,Nc1cc(-c2ccco2)nn1-c1ccc(Cl)cc1,129 to 131 °C
7,Nc1nnc(-c2ccncc2)[nH]1,271 to 273 °C
8,COc1cc(C(=O)O)ccc1OCc1cnn(C)c1,182 to 184 °C
9,O=C(O)c1csc(-c2ccsc2)n1,165 to 167 °C
10,O=C(O)c1ccc(Oc2ccccc2Br)nc1,182 to 184 °C
11,O=C(O)c1cccc(CSc2c(Cl)cccc2Cl)c1,222 to 224 °C
12,O=C(O)C1Cc2ccccc2CN1S(=O)(=O)c1ccccc1 (centres undefined),138 to 140 °C
13,CCn1c(SCC(=O)O)nnc1-c1ccco1,173 to 175 °C
14,Nc1nnc(-c2cccc(Br)c2)s1,216 to 218 °C
15,Nc1ccc(Oc2cccc3cccnc23)cc1,203 to 205 °C
16,O=C1CCCC(C(F)(F)F)N1 (centres undefined),123 to 125 °C
17,OC(c1ccccc1)c1nc2cc(Cl)ccc2[nH]1 (centres undefined),184 to 186 °C
18,O=C(CNCc1ccc(Cl)cc1)Nc1ccccc1F,90 to 92 °C
19,Cn1c(S)nnc1C1CCC1,124 to 126 °C
20,O=S(=O)(c1ccc(CCl)cc1)C(F)F,63 to 65 °C
21,O=S1(=O)Cc2ccccc2N1,123 to 125 °C
22,Cn1c(C(N)c2ccccc2)nc2ccccc21 (centres undefined),110 to 112 °C
23,Nc1ccn(Cc2ccccn2)n1,88 to 90 °C
24,COC(=O)c1cc2c(C)c(C)ccc2[nH]1,144 to 146 °C
25,COc1ccc2c(c1)OCC(C=O)=C2,82 to 84 °C
26,Sc1nnc(-c2c[nH]c3ccccc23)o1,218 to 225 °C

row,SMILES,melting point
1,COc1ccnc(N)c1,99 to 101 °C
2,COC(=O)c1cccc(C)c1C#N,69 to 71 °C
3,CCN(CC)S(=O)(=O)c1cc(C(=O)O)n(C)c1,174 to 176 °C
4,CC(Cl)C(=O)NCc1ccccc1 (centres undefined),75 to 77 °C
5,O=c1[nH]c(-c2ccc3c(c2)OCCO3)cs1,229 to 231 °C
6,COC(=O)CSc1cncc(Cl)n1,32 to 34 °C
7,COc1ccc(OC)c(N2CC(C(=O)O)CC2=O)c1 (centres undefined),100 to 102 °C
8,O=C(O)CCc1n[nH]c(=O)[nH]c1=O,203 to 205 °C
9,Brc1cccc(-c2nnco2)c1,74 to 76 °C
10,Cc1nnc2n1CC(C(=O)O)CC2 (centres undefined),249 to 251 °C
11,O=C(O)CC1CCSCC1,69 to 71 °C
12,Cc1cccc(C)c1NS(=O)(=O)c1ccc(N)cc1,212 to 214 °C
13,Cc1cccc(-n2nc(C(C)(C)C)cc2N)c1,90 to 92 °C
14,COc1ccc(-c2nnn(CC(=O)O)n2)cc1OC,259 to 261 °C
15,CCc1cc2c(n1Cc1ccccc1)CCCC2=O,59 to 61 °C
16,NCc1ccc(NC(=O)c2cccnc2)cc1,137 to 139 °C
17,CCCN(CC)C(=O)c1ccc(C(=O)O)cc1,121 to 123 °C
18,N#CCCN1C(=O)NC2(CCCC2)C1=O,104 to 106 °C
19,NC(=O)c1c[nH]c(C(=O)O)c1,264 to 266 °C
20,O=C(O)C1CC1c1ccccc1OC(F)(F)F (centres undefined),94 to 96 °C
21,O=C(CCC1CCCCC1)Nc1ccc(C(=O)O)c(O)c1,209 to 211 °C
22,CC(=O)NCCc1ccc(C(=O)CCl)s1,124 to 126 °C
23,Cc1cc(NN)nc(-c2ccccn2)n1,175 to 177 °C
24,CCc1nn(C)c(Cl)c1C(=O)O,139 to 141 °C
25,Cc1cccc(C2(C(=O)O)CCCCC2)c1,141 to 143 °C
26,O=Cc1cccc2cn[nH]c12,121 to 123 °C

row,SMILES,melting point
1,COC(=O)c1ccc2[nH]ncc2c1,193 to 195 °C
2,Cc1cc(C)cc(Oc2ccc(N)cc2)c1,55 to 57 °C
3,Cc1cc(=O)oc2cc(OCCBr)ccc12,102 to 104 °C
4,CC1(C)CC(=O)c2ccc(O)cc2O1,168 to 170 °C
5,c1nnc(C2CC2)n1C1CC1,74 to 76 °C
6,O=Cc1c[nH]nc1-c1ccc2c(c1)OCCO2,210 to 212 °C
7,CC(C)(C)C1CNC(=O)C1 (centres undefined),130 to 132 °C
8,Nc1c(O)c(Cl)cc(Cl)c1Cl,119 to 121 °C
9,CN1C(=O)Cc2cc(C(=O)CCl)ccc21,199 to 201 °C
10,NS(=O)(=O)c1ccccn1,141 to 143 °C
11,Fc1ccc(Nc2nccs2)cc1Cl,124 to 126 °C
12,NS(=O)(=O)C#Cc1ccccc1,136 to 138 °C
13,O=C(CCl)NCc1ccccc1CN1CCCC1=O,125 to 127 °C
14,O=C(O)c1ccc(-c2cccs2)cc1F,228 to 230 °C
15,OCc1nnnn1-c1ccccc1,100 to 102 °C
16,COC(C)c1nc(CC(=O)O)cs1 (centres undefined),154 to 156 °C
17,Cc1ccc(C(=O)NC2CCNCC2)s1,163 to 165 °C
18,NC(=O)C1Cc2[nH]cnc2CN1 (centres undefined),249 to 251 °C
19,CCN(CC)C(=O)Cc1ccc(N)cc1,87 to 89 °C
20,CCCCn1c(=O)[nH]c(=O)c2c1nc(CCl)n2C,222 to 224 °C
21,COc1ccc2nc(C)cc(C(=O)O)c2c1,279 to 281 °C
22,O=C(O)c1ccnc(C2CC2)n1,218 to 220 °C
23,O=C(O)c1nn(-c2ccc(F)cc2)ccc1=O,240 to 242 °C
24,O=C(CCl)NC(=O)Nc1ccc2c(c1)OCCCO2,110 to 112 °C
25,O=C1NS(=O)(=O)c2ccc(Br)cc21,245 to 247 °C
26,Cc1cc(C(=O)O)ccc1NC(=O)c1cccs1,199 to 201 °C

row,SMILES,melting point
1,Cc1cc(Cl)c2cc(Cl)cc(C)c2n1,122 to 124 °C
2,CCNc1ncccc1N,108 to 110 °C
3,Cc1ccc(C)c(SCc2cccc(C(=O)O)c2)c1,129 to 131 °C
4,CCn1cc(S(=O)(=O)Cl)nc1C,65 to 67 °C
5,CNC1CCN(c2cc(OC)cc(OC)c2)C1=O (centres undefined),73 to 75 °C
6,NS(=O)(=O)c1ccc([N+](=O)[O-])s1,139 to 141 °C
7,Cn1cc(C(=O)NN)cn1,179 to 181 °C
8,Cn1ncc(Cl)c(Cl)c1=O,87 to 89 °C
9,CC(C)CC1CCC(=O)NC1=O (centres undefined),129 to 131 °C
10,Cc1cccc2[nH]c(C(=O)O)cc12,216 to 218 °C
11,Cc1cc(S(=O)(=O)Cl)cc(C(=O)O)c1F,169 to 171 °C
12,COc1ccc(C=NO)cc1OC,91 to 93 °C
13,COC(=O)c1csc([N+](=O)[O-])c1,77 to 79 °C
14,CC1(c2ccc(S(C)(=O)=O)cc2)NC(=O)NC1=O (centres undefined),228 to 230 °C
15,O=C1CCc2c(F)ccc(Br)c21,129 to 131 °C
16,O=[N+]([O-])c1ccc(F)c(-n2cnnn2)c1,101 to 103 °C
17,O=[N+]([O-])c1cccc(Sc2ccccc2)c1,38 to 40 °C
18,CC(=O)Nc1ccccc1CC(=O)O,144 to 146 °C
19,O=C(C(=O)c1ccc(Cl)cc1)c1ccc(Cl)cc1,198 to 200 °C
20,Nc1ccc(NC(=O)c2ccccc2I)cc1,143 to 145 °C
21,CC(Oc1ccc(Br)cc1F)C(=O)O (centres undefined),113 to 115 °C
22,O=[N+]([O-])c1ncn(CCO)n1,76 to 78 °C
23,CC(=O)CC(=O)N1CCOCC1,68 to 70 °C
24,Nc1cc2c(cc1C(=O)O)OCCCO2,160 to 162 °C
25,CC(C)CN(C(=O)CCl)c1c(N)n(CC(C)C)c(=O)[nH]c1=O,153 to 155 °C
26,CCOC(=O)c1cnc2ccccc2c1-n1cncn1,84 to 86 °C
